target: dog PDE3A recombinant enzyme (Canis lupus familiaris, UniProt A0A8I3NYE0); experiment: cPDE3A assay (fluorescent polarization); type: biochemical; conditions: canine PDE3A, read-out: cPDE3 Inhibition (IC50)
Description: cPDE3A Assay (Fluorescent Polarization)
The canine PDE3A assay kit was purchased from BPS Bioscience (San Diego, CA) which included dog PDE3A recombinant enzyme, FAM-cyclic-3′,5′-AMP (20 μM), PDE3 assay buffer, binding agent, binding agent diluent and microtiter 96-well plates. Compounds were initially dissolved in DMSO. The stock concentration was subsequently diluted in cPDE assay buffer (10× stock) and serially diluted to give a concentration response curve starting at 10 μM (≥7 total concentrations). Following the serial dilution, compound solution (0.1% final DMSO) was transferred to an assay plate (96-well) where the remaining canine PDE3A assay reagents were dispensed according to the BPS Bioscience® protocol (catalog #79735) procedure using a final concentration of 5 pg/μL of enzyme. Each compound was evaluated for the inhibition of the canine PDE3A enzyme activity using the measurement of fluorescent polarization changes. The 50% inhibition concentration (IC50) nM was calculated and reported.

dog PDE3A recombinant enzyme, sequence (A0A8I3NYE0 1-1135): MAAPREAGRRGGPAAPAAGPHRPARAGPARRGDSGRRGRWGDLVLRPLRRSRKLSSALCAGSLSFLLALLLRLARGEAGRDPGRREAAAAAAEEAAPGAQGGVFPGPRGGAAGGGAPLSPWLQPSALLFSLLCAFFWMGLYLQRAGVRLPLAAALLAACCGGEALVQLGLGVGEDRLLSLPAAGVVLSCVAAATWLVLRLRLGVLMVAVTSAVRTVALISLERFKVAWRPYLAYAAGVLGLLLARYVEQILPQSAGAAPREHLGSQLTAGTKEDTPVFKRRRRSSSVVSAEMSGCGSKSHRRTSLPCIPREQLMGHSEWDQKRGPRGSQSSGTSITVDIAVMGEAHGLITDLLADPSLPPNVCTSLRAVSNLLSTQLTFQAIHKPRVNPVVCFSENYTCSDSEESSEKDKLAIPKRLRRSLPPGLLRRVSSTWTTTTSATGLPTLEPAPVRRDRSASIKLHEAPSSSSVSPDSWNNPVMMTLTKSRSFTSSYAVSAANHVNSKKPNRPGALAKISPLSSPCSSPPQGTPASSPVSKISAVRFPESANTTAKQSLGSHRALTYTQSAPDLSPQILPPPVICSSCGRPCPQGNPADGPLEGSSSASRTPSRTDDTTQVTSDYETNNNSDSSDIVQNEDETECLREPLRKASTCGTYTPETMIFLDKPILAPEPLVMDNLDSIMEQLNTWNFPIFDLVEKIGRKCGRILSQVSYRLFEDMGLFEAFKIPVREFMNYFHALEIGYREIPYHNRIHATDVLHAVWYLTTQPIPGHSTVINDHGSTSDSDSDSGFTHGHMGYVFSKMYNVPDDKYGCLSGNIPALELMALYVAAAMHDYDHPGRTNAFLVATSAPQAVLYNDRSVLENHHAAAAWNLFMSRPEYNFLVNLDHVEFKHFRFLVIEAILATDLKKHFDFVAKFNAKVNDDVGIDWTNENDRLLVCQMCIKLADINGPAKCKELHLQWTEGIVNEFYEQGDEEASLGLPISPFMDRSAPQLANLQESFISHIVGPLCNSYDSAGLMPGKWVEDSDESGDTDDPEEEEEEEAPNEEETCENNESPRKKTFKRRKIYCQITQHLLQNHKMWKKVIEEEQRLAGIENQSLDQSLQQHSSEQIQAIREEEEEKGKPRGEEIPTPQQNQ

Compound | IC50
CC1CC(=O)NN=C1c1cc(Br)c2c(c1)CCC(=O)N2 (stereo not shown) [Example #3, 8-bromo-6-(4-methyl-6-oxo-1,4,5,6-tetrahydropyridazin-3-yl)-3,4-dihydroquinolin-2 (1H)-one] | 3.2 nM
O=C1CCc2cc(-c3ccc(=O)[nH]n3)cc(-c3ccc(Cl)cc3)c2N1 [Example #9, 8-(4-chlorophenyl)-6-(6-oxo-1,6-dihydropyridazin-3-yl)-3,4-dihydroquinolin-2 (1H)-one] | 13.6 nM
CC1(C)C(=O)Nc2c(Cl)cc(-c3cnc4c(c3)CCC(=O)N4)cc21 [Example #87, 6-(7-chloro-3,3-dimethyl-2-oxoindolin-5-yl)-3,4-dihydro-1,8-naphthyridin-2 (1H)-one] | 3.4 nM
CC1CC(=O)NN=C1c1cc(Cl)c2c(c1)CNC2=O (stereo not shown) [Example #39, 7-chloro-5-(4-methyl-6-oxo-1,4,5,6-tetrahydropyridazin-3-yl)isoindolin-1-one] | 10.5 nM
C[C@@H]1SC(=O)NN=C1c1cc(F)c2c(c1)CC(=O)N2 [Example #78, (S)-5-(7-fluoro-2-oxoindolin-5-yl)-6-methyl-3,6-dihydro-2H-1,3,4-thiadiazin-2-one] | 7.8 nM
CC1CC(=O)NN=C1c1cc(Cl)c2nc(N)sc2c1 (stereo not shown) [Example #30, 6-(2-amino-4-chlorobenzo[d]thiazol-6-yl)-5-methyl-4,5-dihydropyridazin-3 (2H)-one] | 4 nM
CC1SC(=O)NN=C1c1cc(Br)c2c(c1)CCC(=O)N2 (stereo not shown) [Example #65, 5-(8-bromo-2-oxo-1,2,3,4-tetrahydroquinolin-6-yl)-6-methyl-3,6-dihydro-2H-1,3,4-thiadiazin-2-one] | 4.3 nM
CC1SC(=O)NN=C1c1cc(Cl)c2c(c1)CS(=O)(=O)N2 (stereo not shown) [compound 82, 5-(7-chloro-2,2-dioxido-1,3-dihydrobenzo[c]isothiazol-5-yl)-6-methyl-3,6-dihydro-2H-1,3,4-thiadiazin-2-one] | 26.4 nM
CC1CC(=O)NN=C1c1cc(Cl)c2[nH]c(=O)ccc2c1 (stereo not shown) [Example #35, 8-chloro-6-(4-methyl-6-oxo-1,4,5,6-tetrahydropyridazin-3-yl)quinolin-2 (1H)-one] | 3.2 nM
CC1CC(=O)NN=C1c1cc(C#N)c2[nH]c(=O)ccc2c1 (stereo not shown) [Example #40, 6-(4-methyl-6-oxo-1,4,5,6-tetrahydropyridazin-3-yl)-2-oxo-1,2-dihydroquinoline-8-carbonitrile] | 12 nM
CC1CC(=O)NN=C1c1cc(C#N)c2nc(N)sc2c1 (stereo not shown) [Example #38, 2-amino-6-(4-methyl-6-oxo-1,4,5,6-tetrahydropyridazin-3-yl)benzo[d]thiazole-4-carbonitrile] | 7.4 nM
CC1CC(=O)NN=C1c1cc2c(c(-c3nccs3)c1)NC(=O)CC2 (stereo not shown) [Example #2, 6-(4-methyl-6-oxo-1,4,5,6-tetrahydropyridazin-3-yl)-8-(thiazol-2-yl)-3,4-dihydroquinolin-2 (1H)-one] | 23.5 nM
Cc1cc(C2=NNC(=O)S[C@@H]2C)cc2ccc(O)nc12 [compound 60, (R)-5-(2-hydroxy-8-methylquinolin-6-yl)-6-methyl-3,6-dihydro-2H-1,3,4-thiadiazin-2-one] | 4.7 nM
COc1ccc(-c2cc(C3=NNC(=O)CC3C)cc3c2NC(=O)CC3)cn1 (stereo not shown) [compound 14, 8-(6-methoxypyridin-3-yl)-6-(4-methyl-6-oxo-1,4,5,6-tetrahydropyridazin-3-yl)-3,4-dihydroquinolin-2 (1H)-one] | 50.2 nM
CC1CC(=O)NN=C1c1ccc2nc(Nc3ccc4ncsc4c3)n(C)c2c1 (stereo not shown) [compound 10, 6-(2-(benzo[d]thiazol-6-ylamino)-1-methyl-1H-benzo[d]imidazol-6-yl)-5-methyl-4,5-dihydropyridazin-3 (2H)-one] | 7.3 nM
C[C@@H]1CC(=O)NN=C1c1cc(F)c2c(c1)CC(=O)N2 [compound 54, (R)-7-fluoro-5-(4-methyl-6-oxo-1,4,5,6-tetrahydropyridazin-3-yl)indolin-2-one] | 7.4 nM
